The subject of assay [1] is B16. Kind of assay: Antiproliferative activity against mouse B16 cells assessed as reduction in cell viability measured for 48 hrs by MTT assay. The format is functional, cell-based. The settings on record: B16, 48 h.
The target of assay [2] is Histone deacetylase 1 (Homo sapiens, UniProt Q13547). Description: Inhibition of HDAC1 (unknown origin) by fluorescence based assay.
The target of assay [3] is T1, Phosphatidylinositol 4,5-bisphosphate 3-kinase catalytic subunit alpha isoform (Homo sapiens, UniProt P42336). Kind of assay: Inhibition of full length wild type PI3Kalpha (unknown origin).
Assay [4] has as its target T1, Phosphatidylinositol 4,5-bisphosphate 3-kinase catalytic subunit alpha isoform. Description: Inhibition of PI3Kalpha (unknown origin) using PIP2 as substrate preincubated for 15 mins followed by substrate addition and measured after 1 hr by HTRF assay. In general terms: In TR-FRET formats the signal depends on donor and acceptor labels being close together.
Assay [5] deals with T2, Phosphatidylinositol 4,5-bisphosphate 3-kinase catalytic subunit beta isoform (Homo sapiens, UniProt P42338). Description: Inhibition of PI3Kbeta (unknown origin) using […] as substrate preincubated for 15 mins followed by substrate addition and measured after 1 hr by HTRF assay.
The target in assay [6] is T3, Phosphatidylinositol 4,5-bisphosphate 3-kinase catalytic subunit gamma isoform (Homo sapiens, UniProt P48736). Kind of assay: Inhibition of PI3Kgamma (unknown origin) using […] as substrate preincubated for 15 mins followed by substrate addition and measured after 1 hr by HTRF assay.
Assay [7] deals with T4, Phosphatidylinositol 4,5-bisphosphate 3-kinase catalytic subunit delta isoform (Homo sapiens, UniProt O00329).
T4 sequence (O00329 whole entry): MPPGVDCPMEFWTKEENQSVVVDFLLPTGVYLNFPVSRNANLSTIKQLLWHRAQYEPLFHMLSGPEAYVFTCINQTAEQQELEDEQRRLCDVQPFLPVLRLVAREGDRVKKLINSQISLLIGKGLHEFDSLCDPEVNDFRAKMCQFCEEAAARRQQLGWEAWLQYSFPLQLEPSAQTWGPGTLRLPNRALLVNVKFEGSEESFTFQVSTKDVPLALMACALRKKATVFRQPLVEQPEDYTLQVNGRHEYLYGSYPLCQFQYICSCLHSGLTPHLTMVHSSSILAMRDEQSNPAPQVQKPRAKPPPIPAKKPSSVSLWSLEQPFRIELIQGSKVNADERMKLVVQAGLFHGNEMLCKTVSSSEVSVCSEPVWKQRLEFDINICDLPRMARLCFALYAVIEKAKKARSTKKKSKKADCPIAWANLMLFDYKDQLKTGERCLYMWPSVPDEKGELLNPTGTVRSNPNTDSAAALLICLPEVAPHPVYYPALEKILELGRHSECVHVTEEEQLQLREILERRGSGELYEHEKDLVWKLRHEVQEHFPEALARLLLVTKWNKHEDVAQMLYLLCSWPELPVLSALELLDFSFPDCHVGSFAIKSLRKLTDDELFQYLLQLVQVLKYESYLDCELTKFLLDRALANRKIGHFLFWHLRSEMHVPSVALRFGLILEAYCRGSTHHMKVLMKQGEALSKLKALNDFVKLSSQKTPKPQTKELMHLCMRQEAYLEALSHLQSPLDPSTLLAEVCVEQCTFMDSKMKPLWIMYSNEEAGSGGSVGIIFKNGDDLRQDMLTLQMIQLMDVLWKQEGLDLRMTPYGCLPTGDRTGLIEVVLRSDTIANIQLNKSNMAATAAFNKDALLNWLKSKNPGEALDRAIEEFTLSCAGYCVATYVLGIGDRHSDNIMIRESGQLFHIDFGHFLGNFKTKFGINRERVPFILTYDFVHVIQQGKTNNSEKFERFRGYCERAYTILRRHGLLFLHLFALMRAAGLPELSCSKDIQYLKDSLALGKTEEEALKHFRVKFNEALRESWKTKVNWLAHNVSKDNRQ
Description: Inhibition of PI3Kdelta (unknown origin) using PIP2 as substrate preincubated for 15 mins followed by substrate addition and measured after 1 hr by HTRF assay.

Assay [8] has as its target Epidermal growth factor receptor (Homo sapiens, UniProt P00533). Description: Inhibition of EGFR (unknown origin).
Assay [9] can be described thus: Cytotoxicity against human SK-ES cells assessed as reduction in cell viability incubated for 48 hrs by CellTiter-Blue reagent based […] assay. The format is functional. For orientation: The colour change of resazurin is a common sign of viable cells or microbes.
A short description of assay [10]: Antiproliferative activity against human A2780cis cells assessed as inhibition of cell growth incubated for 72 hrs by cell-titer glo assay. The format is functional, cell-based.
Assay [11] addresses T1, Phosphatidylinositol 4,5-bisphosphate 3-kinase catalytic subunit alpha isoform.
Assay [12] concerns the target T3, Phosphatidylinositol 4,5-bisphosphate 3-kinase catalytic subunit gamma isoform.
In assay [13] the target is T5, Histone deacetylase 8 (Homo sapiens, UniProt Q9BY41).
T5 sequence (Q9BY41 whole entry): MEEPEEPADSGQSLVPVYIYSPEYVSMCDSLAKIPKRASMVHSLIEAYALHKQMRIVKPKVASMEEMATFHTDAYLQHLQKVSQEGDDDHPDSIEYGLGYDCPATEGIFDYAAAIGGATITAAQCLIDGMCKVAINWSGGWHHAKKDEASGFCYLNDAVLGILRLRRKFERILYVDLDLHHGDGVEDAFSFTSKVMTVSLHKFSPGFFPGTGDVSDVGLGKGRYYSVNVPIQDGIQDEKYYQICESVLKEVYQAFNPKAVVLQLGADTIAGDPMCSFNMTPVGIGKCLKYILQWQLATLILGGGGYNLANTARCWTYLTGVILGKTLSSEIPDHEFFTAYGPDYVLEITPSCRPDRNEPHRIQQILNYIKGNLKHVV
Description: Inhibition of HDAC8 (unknown origin) using Fluoro-Substrate Peptide as substrate by fluorescence assay.

The target of assay [14] is Mitogen-activated protein kinase 1 (Homo sapiens) (UniProt P28482). Description: Inhibition of ERK2 (unknown origin) at 1 uM relative to control by ADP-Glo assay. On the technique in general: ADP-Glo first removes unused ATP, then detects ADP through luciferase.
Assay [15] has as its target T1, Phosphatidylinositol 4,5-bisphosphate 3-kinase catalytic subunit alpha isoform. Kind of assay: Inhibition of PI3Kalpha (unknown origin) at 1 uM by kinase-glo luminescent assay relative to control.
For assay [16], the target named is T2, Phosphatidylinositol 4,5-bisphosphate 3-kinase catalytic subunit beta isoform. Kind of assay: Inhibition of human recombinant PI3Kbeta.
The subject of assay [17] is A-375. Description: Antiproliferative activity against human A-375 cells assessed as reduction in cell viability measured after 48 hrs by MTT assay. The settings on record: A-375, 48 h. The format is functional, cell-based.
Assay [18] has as its target T5, Histone deacetylase 8. Description: Inhibition of HDAC8 (unknown origin) by fluorescence based assay.
The target of assay [19] is Serine/threonine-protein kinase mTOR (Homo sapiens, UniProt P42345).

In brackets after ≈: the same amount, converted by molar mass.

As usually defined, the IC50 is the concentration that gives 50% inhibition. Broadly, the inhibition is the relative decrease from the control value, in per cent. A lower inhibition goes with a weak effect.

T1 sequence (P42336 whole entry, canonical isoform): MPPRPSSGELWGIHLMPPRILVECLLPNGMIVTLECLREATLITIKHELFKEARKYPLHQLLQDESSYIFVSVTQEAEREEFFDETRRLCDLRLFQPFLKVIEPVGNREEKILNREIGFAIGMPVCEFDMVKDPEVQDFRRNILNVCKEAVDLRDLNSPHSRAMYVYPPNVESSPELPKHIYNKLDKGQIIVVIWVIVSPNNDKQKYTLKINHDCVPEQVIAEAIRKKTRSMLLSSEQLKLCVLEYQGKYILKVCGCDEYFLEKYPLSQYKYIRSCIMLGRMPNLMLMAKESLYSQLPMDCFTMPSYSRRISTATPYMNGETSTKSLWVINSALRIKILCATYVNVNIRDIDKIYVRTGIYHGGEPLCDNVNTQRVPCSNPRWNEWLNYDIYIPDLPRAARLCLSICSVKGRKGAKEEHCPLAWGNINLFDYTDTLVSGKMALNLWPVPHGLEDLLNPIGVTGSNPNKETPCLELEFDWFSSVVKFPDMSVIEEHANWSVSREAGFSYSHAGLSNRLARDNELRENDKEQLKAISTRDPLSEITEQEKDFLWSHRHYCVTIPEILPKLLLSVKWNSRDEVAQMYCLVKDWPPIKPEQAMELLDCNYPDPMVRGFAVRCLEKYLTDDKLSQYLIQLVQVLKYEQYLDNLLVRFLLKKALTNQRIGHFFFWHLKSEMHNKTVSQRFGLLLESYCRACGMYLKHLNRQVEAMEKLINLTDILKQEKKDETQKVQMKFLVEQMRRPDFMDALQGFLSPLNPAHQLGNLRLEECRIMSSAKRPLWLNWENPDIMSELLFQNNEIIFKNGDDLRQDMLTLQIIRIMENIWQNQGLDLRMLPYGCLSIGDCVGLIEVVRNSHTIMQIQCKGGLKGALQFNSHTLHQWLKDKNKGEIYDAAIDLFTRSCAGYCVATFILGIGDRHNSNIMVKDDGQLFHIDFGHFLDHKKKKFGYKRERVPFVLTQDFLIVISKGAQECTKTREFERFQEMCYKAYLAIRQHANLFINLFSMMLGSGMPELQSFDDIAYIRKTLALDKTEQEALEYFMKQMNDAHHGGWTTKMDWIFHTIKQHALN
T3 sequence (P48736 whole entry, canonical isoform): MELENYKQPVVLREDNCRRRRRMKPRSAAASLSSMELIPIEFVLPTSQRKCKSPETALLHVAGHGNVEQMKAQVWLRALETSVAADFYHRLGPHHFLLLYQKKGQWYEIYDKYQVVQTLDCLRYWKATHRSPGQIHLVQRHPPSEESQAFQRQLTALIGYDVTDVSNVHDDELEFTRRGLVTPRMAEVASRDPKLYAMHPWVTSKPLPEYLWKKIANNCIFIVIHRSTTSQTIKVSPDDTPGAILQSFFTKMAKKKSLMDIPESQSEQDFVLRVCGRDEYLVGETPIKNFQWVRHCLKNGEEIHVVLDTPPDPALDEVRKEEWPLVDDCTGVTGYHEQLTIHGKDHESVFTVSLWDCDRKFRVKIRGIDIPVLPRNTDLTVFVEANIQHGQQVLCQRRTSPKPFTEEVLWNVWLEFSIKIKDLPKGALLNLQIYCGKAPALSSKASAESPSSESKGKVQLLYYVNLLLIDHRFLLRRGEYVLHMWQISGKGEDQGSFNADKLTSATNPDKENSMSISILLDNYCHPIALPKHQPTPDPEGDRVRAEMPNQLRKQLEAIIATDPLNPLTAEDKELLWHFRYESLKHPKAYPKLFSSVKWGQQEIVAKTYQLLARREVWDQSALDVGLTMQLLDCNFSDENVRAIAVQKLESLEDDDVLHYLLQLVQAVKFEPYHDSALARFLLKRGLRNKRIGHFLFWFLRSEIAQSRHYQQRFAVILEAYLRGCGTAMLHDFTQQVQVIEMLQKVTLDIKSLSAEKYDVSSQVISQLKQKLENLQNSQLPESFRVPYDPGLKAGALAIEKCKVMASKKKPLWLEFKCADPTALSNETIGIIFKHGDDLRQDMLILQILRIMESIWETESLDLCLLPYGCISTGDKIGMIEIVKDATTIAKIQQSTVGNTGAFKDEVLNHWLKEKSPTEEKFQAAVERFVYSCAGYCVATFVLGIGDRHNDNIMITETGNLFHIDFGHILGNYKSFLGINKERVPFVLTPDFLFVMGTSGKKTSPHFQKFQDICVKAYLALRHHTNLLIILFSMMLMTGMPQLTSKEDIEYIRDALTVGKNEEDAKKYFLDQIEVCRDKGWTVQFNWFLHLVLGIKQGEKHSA
T2 sequence (P42338 whole entry, canonical isoform): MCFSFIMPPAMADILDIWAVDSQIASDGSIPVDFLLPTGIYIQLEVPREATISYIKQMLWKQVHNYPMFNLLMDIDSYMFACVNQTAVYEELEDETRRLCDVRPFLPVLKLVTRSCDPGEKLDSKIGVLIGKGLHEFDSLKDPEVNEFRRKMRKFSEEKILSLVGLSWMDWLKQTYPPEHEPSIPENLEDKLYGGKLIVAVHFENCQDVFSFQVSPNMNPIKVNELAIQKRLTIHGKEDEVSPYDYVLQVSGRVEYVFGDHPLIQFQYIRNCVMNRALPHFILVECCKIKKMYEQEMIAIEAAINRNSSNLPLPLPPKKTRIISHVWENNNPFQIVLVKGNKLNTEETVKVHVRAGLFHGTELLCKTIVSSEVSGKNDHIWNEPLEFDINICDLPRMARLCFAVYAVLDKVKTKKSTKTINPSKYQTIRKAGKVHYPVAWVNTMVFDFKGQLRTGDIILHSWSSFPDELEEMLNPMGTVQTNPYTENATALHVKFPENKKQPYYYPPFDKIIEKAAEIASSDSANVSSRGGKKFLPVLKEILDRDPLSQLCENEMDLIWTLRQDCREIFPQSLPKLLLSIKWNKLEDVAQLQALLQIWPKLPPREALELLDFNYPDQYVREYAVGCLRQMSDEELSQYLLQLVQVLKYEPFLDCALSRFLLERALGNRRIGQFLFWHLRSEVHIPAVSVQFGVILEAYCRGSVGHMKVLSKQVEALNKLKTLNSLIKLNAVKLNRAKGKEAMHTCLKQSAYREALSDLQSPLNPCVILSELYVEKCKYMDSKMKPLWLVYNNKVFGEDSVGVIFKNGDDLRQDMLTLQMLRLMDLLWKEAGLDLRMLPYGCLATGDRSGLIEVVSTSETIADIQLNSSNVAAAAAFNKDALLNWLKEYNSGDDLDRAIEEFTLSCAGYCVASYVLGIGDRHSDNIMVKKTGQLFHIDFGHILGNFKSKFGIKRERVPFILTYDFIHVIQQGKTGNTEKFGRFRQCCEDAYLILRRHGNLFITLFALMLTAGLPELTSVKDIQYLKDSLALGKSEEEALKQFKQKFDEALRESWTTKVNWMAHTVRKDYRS
Sequence of Mitogen-activated protein kinase 1 (Homo sapiens) (P28482 whole entry, canonical isoform): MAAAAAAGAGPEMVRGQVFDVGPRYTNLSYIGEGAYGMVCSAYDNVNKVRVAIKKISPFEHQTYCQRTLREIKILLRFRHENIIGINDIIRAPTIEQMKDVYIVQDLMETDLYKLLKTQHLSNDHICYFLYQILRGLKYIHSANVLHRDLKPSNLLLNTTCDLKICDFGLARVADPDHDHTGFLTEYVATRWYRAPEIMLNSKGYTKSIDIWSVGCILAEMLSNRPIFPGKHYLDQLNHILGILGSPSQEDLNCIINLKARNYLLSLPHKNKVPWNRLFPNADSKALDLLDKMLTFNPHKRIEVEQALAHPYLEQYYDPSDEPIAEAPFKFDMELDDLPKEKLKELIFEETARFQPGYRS
Sequence of Histone deacetylase 1 (Q13547 whole entry, canonical isoform): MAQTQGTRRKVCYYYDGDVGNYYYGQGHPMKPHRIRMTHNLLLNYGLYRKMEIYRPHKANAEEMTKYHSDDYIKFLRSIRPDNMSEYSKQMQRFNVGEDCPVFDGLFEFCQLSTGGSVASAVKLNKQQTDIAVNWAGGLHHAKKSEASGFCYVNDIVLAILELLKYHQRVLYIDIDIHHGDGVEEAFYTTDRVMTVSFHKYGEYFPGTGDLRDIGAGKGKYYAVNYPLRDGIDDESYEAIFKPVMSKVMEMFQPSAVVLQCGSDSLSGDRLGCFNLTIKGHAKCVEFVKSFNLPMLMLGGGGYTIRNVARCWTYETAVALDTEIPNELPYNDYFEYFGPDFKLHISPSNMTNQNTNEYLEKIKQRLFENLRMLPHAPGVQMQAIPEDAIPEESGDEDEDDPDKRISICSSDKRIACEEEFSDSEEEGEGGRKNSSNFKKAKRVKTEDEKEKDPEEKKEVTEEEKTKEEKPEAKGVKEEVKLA

With `CC(C)c1cc(C(=O)N2CCc3c(sc4ncnc(N5CCOCC5)c34)C2)c(O)cc1O`, the IC50 in assay [1] was 0.47 µg/mL (≈ 1.03 µM).
With `CC(C)[C@H]1NC(=O)C[C@H]2/C=C/CCSSC[C@@H](NC1=O)C(=O)N[C@H](Cc1ccccc1)C(=O)NCC(=O)O2`, the IC50 in [2] stood at 2.5 nM; in assay [3] it was 27300 nM.
`CCOC(=O)c1nn(-c2ccccc2)c(=O)c2c(N)c(C#N)c(-c3cccs3)cc12`: the IC50 in assay [4] was 10500 nM; in [5], 32700 nM; in [6], 30000 nM; in assay [7], 7470 nM; in assay [8], 114000 nM.
`CC(C)OC(=O)N1CCC(Nc2ncnc3ccc(-c4cnc(Cl)c(NS(=O)(=O)c5ccc(F)cc5F)c4)nc23)CC1`: the concentration for half-maximal inhibition (IC50) in [9] was 99.5 nM; in assay [10], 213 nM.
As to `COc1c(OCCCCCC(=O)NO)ccc2c1N=C(NC(=O)c1ccccc1)N1CCN=C21`, the IC50 in [11] was determined as 2.98 nM; in assay [12], 25 nM; in [13], 153 nM.
On to `Cn1cc(-c2n[nH]c3nc(NC(=O)NC4CCCC4)ncc23)cn1`, for which the inhibition in [14] came out at 79.5%; in assay [15] it was 4%.
Take `O=C(Nc1ncc2ncc(-c3cn[nH]c3)cc2n1)NC1CCCC1`: the IC50 in assay [16] was 5 nM.
For `CC(C)c1cc(C(=O)N2CCc3c(sc4nc(-c5cccnc5)nc(N5CCOCC5)c34)C2)c(O)cc1O`, in assay [17], the concentration for half-maximal inhibition (IC50) was determined as 2.29 µg/mL (≈ 4.31 µM).
Compound `O=C(NO)c1ccc(/C=N/NC(=O)c2cc(N3CCOCC3)nc(-c3cccc4[nH]ncc34)n2)cc1` registered an IC50 in [18] of 66.5 nM.
Consider `CCn1c(=O)c(-c2cc[nH]n2)cc2c(C)nc(N)nc21` [VOXTALISIB], for which the IC50 in assay [19] worked out at 150 nM.
